Results: the NIST ThermoML archive (doi:10.1016/j.jct.2006.07.022)

Assay: xn = mol fraction of the nth substance listed
Settings: 101 kPa, Liquid

CCc1ccccc1 [ethylbenzene] + CN(C)C=O
Settings	mass density [kg/m3]
293.15 K, x1 = 0.0514	942.69
293.15 K, x1 = 0.1124	936.07
293.15 K, x1 = 0.1754	929.58
293.15 K, x1 = 0.2451	922.8
293.15 K, x1 = 0.3102	916.81
293.15 K, x1 = 0.3754	911.11
293.15 K, x1 = 0.4514	904.81
293.15 K, x1 = 0.5214	899.3
293.15 K, x1 = 0.5862	894.43
293.15 K, x1 = 0.6478	890
293.15 K, x1 = 0.7012	886.28
293.15 K, x1 = 0.7658	881.94
293.15 K, x1 = 0.8214	878.33
293.15 K, x1 = 0.8845	874.33
293.15 K, x1 = 0.9451	870.6
293.15 K, x1 = 1	867.28
303.15 K, x1 = 0.0562	933.08
303.15 K, x1 = 0.1141	926.82
303.15 K, x1 = 0.1865	919.45
303.15 K, x1 = 0.2451	913.8
303.15 K, x1 = 0.3065	908.15
303.15 K, x1 = 0.375	902.18
303.15 K, x1 = 0.4354	897.14
303.15 K, x1 = 0.4952	892.39
303.15 K, x1 = 0.5685	886.81
303.15 K, x1 = 0.6284	882.45
303.15 K, x1 = 0.7025	877.28
303.15 K, x1 = 0.7654	873.05
303.15 K, x1 = 0.8251	869.17
303.15 K, x1 = 0.8821	865.57
303.15 K, x1 = 0.9422	861.86
303.15 K, x1 = 1	858.36
313.15 K, x1 = 0.0684	922.45
313.15 K, x1 = 0.1151	917.46
313.15 K, x1 = 0.1855	910.34
313.15 K, x1 = 0.2525	903.93
313.15 K, x1 = 0.3101	898.69
313.15 K, x1 = 0.3852	892.2
313.15 K, x1 = 0.4421	887.51
313.15 K, x1 = 0.5012	882.85
313.15 K, x1 = 0.5688	877.74
313.15 K, x1 = 0.6211	873.93
313.15 K, x1 = 0.6855	869.42
313.15 K, x1 = 0.7451	865.39
313.15 K, x1 = 0.8021	861.65
313.15 K, x1 = 0.8654	857.62
313.15 K, x1 = 0.9325	853.47
313.15 K, x1 = 1	849.38
323.15 K, x1 = 0.0463	915.35
323.15 K, x1 = 0.1125	908.29
323.15 K, x1 = 0.1785	901.64
323.15 K, x1 = 0.2462	895.17
323.15 K, x1 = 0.312	889.22
323.15 K, x1 = 0.3745	883.85
323.15 K, x1 = 0.4352	878.85
323.15 K, x1 = 0.4952	874.12
323.15 K, x1 = 0.5552	869.58
323.15 K, x1 = 0.6125	865.41
323.15 K, x1 = 0.6784	860.79
323.15 K, x1 = 0.7451	856.29
323.15 K, x1 = 0.8021	852.57
323.15 K, x1 = 0.8666	848.48
323.15 K, x1 = 0.9451	843.65
323.15 K, x1 = 1	840.35
333.15 K, x1 = 0.0548	904.7
333.15 K, x1 = 0.1241	897.45
333.15 K, x1 = 0.1852	891.41
333.15 K, x1 = 0.2451	885.77
333.15 K, x1 = 0.3021	880.64
333.15 K, x1 = 0.3625	875.45
333.15 K, x1 = 0.4255	870.27
333.15 K, x1 = 0.4954	864.79
333.15 K, x1 = 0.5621	859.79
333.15 K, x1 = 0.6215	855.53
333.15 K, x1 = 0.6865	851.02
333.15 K, x1 = 0.7451	847.11
333.15 K, x1 = 0.8002	843.53
333.15 K, x1 = 0.8621	839.62
333.15 K, x1 = 0.9351	835.15
333.15 K, x1 = 1	831.25
343.15 K, x1 = 0.0689	893.27
343.15 K, x1 = 0.132	886.83
343.15 K, x1 = 0.1952	880.71
343.15 K, x1 = 0.2621	874.55
343.15 K, x1 = 0.3262	868.95
343.15 K, x1 = 0.3865	863.91
343.15 K, x1 = 0.4461	859.15
343.15 K, x1 = 0.5121	854.09
343.15 K, x1 = 0.5685	849.94
343.15 K, x1 = 0.6332	845.36
343.15 K, x1 = 0.7095	840.17
343.15 K, x1 = 0.7651	836.53
343.15 K, x1 = 0.8221	832.9
343.15 K, x1 = 0.8858	828.96
343.15 K, x1 = 0.9514	824.99
343.15 K, x1 = 1	822.11
353.15 K, x1 = 0.0458	885.55
353.15 K, x1 = 0.1112	878.86
353.15 K, x1 = 0.1784	872.35
353.15 K, x1 = 0.2351	867.13
353.15 K, x1 = 0.2965	861.72
353.15 K, x1 = 0.3589	856.48
353.15 K, x1 = 0.4152	851.94
353.15 K, x1 = 0.4784	847.06
353.15 K, x1 = 0.5321	843.06
353.15 K, x1 = 0.5962	838.48
353.15 K, x1 = 0.6748	833.09
353.15 K, x1 = 0.7451	828.47
353.15 K, x1 = 0.8032	824.77
353.15 K, x1 = 0.8745	820.37
353.15 K, x1 = 0.9548	815.56
353.15 K, x1 = 1	812.9
